pIC50: −log10 of the molar value.
Experiments:
[1] = tested on: Human non-small cell lung cancer cells NCI-H1299; assay: NCI-H1299 cell proliferation inhibition (CellTiter-Glo); type: cell-based; details: cultured 3 days, table head NCI-H1975, method NCI-H1299
Protocol: 2. Determination of Cell Proliferation Activity of Compounds:
NCI-H1299 cell proliferation inhibition screening method was established using CellTiter-fib detection reagent from Promega.
Human non-small cell lung cancer cells NCI-H1299 were cultured in 25 cm^2 or 75 cm^2 plastic tissue culture flasks (Corning) filled with DMEM (Gibco) medium supplemented with 10% fetal bovine serum (Hyclone) under 37° C., 95% air, and 5% CO2, and subcultured 2-3 times a week.
Cells were seeded at 1000 cells/well in a 96-well cell culture plate (Corning), 195 μL/well, and cultured under 37° C., 95% air, and 5% CO2. The next day test compound was added: 10 mM compounds (dissolved in DMSO) were subjected to 3-fold gradient dilution in DMSO, 2 μL of diluent from each concentration was added to 48 μL of serum-fret medium, and finally 5 μL of the diluted compound was added to the plate seeded with cells. The final concentration of DMSO in the cell culture was 0.1% and the foul concentration of the test compound was 0.3 nM-10 μM. The cells were cultured at 37° C. for 3 days.

[2] = target: T1, WEE1 kinase (Homo sapiens, UniProt P30291); assay: WEE1 kinase binding assay (LanthaScreen EU); details: WEE1 kinase 20 nM, Kinase Tracer 178 100 nM, 23° C. for 60 min, read-out: WEEI (IC50)
T1 construct: purchased Carna bioscience
T1 sequence (P30291 whole entry): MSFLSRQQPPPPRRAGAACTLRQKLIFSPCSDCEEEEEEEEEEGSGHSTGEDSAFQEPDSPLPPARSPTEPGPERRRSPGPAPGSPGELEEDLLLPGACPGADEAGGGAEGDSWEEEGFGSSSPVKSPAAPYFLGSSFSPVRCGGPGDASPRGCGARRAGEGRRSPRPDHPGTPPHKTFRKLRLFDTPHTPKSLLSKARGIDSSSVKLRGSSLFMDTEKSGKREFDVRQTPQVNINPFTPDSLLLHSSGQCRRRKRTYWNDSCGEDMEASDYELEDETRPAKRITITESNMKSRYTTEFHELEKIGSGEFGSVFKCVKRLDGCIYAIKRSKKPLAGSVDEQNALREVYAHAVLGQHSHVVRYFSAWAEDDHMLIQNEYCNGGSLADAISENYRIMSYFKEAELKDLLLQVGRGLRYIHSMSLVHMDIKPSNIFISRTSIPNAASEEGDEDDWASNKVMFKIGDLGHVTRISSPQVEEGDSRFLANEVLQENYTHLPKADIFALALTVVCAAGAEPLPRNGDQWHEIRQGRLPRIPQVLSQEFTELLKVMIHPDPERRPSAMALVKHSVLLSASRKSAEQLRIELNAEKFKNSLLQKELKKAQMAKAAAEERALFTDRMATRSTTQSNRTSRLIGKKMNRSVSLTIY
Protocol: 1. Assay for WEE1 Kinase Inhibitory Activity (IC50) on Compounds
The WEE1 kinase binding assay was established and optimized with LanthaScreen EU for the determination of the activity of compounds. 10 mM compounds were subjected to ten-fold gradient dilution in 100% DMSO (6 concentrations in total), 5 μL of diluent from each concentration was added to 45 μL of reaction buffer (50 mM HEPES (4-hydroxyethylpiperazine ethanesulfonic acid), pH 7.5, 10 mM MgCl2 (magnesium chloride), 1 mM EGTA (ethylene glycol diethyl ether diamine tetraacetic acid), 0.01% Brij-35 (polyoxyethylene lauryl ether)) for blending. On this basis, 2 μL diluent from each concentration was added to 48 μL of reaction buffer for blending as a 4*compound (final concentrations of 1000, 100, 10, 1, 0.1, 0 nM) for later use. Reaction buffer was used to formulate 4*WEE1 kinase (purchased from Carna bioscience, a final concentration of 20 nM), 4*LanthaScreen EU-anti-GST Antibody (purchased from Invitrogen, PV5594, a fuel concentration of 2 nM), and 4*Kinase Tracer 178 (purchased from Invitrogen, PV5593, a final concentration of 100 nM). 2.5 μL of 4*compound was added to a 384-well plate (OptiPlate-384, purchased from PerkinElmer), followed by adding 2.5 μL of 4*WEE1 kinase, standing for 5 min at room temperature. Then 2.5 μL of 4*LanthaScreen EU-anti-GST Antibody was added followed by 2.5 μL of 4*Kinase Tracer 178. The reaction was started by centrifugation (a total reaction volume of 10 μL). The 384-well plate was wrapped with tin foil paper and placed in an incubator at 23° C. for 60 min. Fluorescence values (excitation at 320 nm, detecting emitted light at 665 nm and 615 nm, and a ratio of the two as enzyme activity) were read on Envision (purchased from PerkinElmer). The enzyme activity of each compound was measured at 6 concentrations, and the IC50 value of the compound was calculated using GraFit6.0 software (Erithacus Software).
The aforementioned “*” refers to multiplying, representing multiples.

Row | Compound | pIC50 ([1]; Homo sapiens, 72 h) | pIC50 [2] | pIC50 [1]
1 | COc1cc(Nc2ncc3cc(C4CC4)n(-c4cccc(N=S(C)(C)=O)n4)c3n2)ccc1N1CCC(N2CCN(C)CC2)CC1 [Example 87, ((6-(6-cyclopropyl-2-((3-methoxy-4-(4-(4-methylpiperazin-1-yl)piperidin-1-yl)phenyl)amino)-7H-pyrrolo[2,3-d]pyrimidin-7-yl)pyridin-2-yl)imino)dimethyl-λ^6-sulfanone] | 7.05 | 9.01 | –
2 | CS(C)(=O)=Nc1cccc(-n2c(C3CC3)cc3cnc(Nc4ccc(N5CC6CCC(C5)N6)c(F)c4)nc32)n1 [Example 101, ((6-(2-((4-(3,8-diazabicyclo[3.2.1]octan-3-yl)-3-fluorophenyl)amino)-6-cyclopropyl-7H-pyrrolo[2,3-d]pyrimidin-7-yl)pyridin-2-yl)imino)dimethyl-λ^6-sulfanone] | 7.18 | 9.15 | –
3 | CCCc1cc2cnc(Nc3ccc(N4CCC(N5CCN(C)CC5)CC4)cc3)nc2n1-c1cccc(N=S(C)(C)=O)n1 [Example 136, dimethyl((6-(2-((4-(4-(4-methylpiperazin-1-yl)piperidin-1-yl)phenyl)amino)-6-propyl-7H-pyrrolo[2,3-d]pyrimidin-7-yl)pyridin-2-yl)imino)-λ^6-sulfanone] | 7.06 | 9.05 | –
4 | CC(C)c1cc2cnc(Nc3ccc(N4CCN(C)CC4)cc3)nc2n1-c1cccc(N=S(C)(C)=O)n1 [Example 6, ((6-(6-isopropyl-2-((4 (4-methylpiperazin-1-yl)phenyl)amino)-7H-pyrrolo[2,3-d]pyrimidin-7-yl)pyridin-2-yl)imino)dimethyl-λ^6-sulfanone] | – | 9.02 | –
5 | CN1[C@@H]2CC[C@H]1CN(c1ccc(Nc3ncc4cc(C5CC5)n(-c5cccc(N=S(C)(C)=O)n5)c4n3)cc1)C2 [Example 81, ((6-(6-cyclopropyl-2-((4-((1R,5S)-8-methyl-3,8-diazabicyclo[3.2.1]octan-3-yl)phenyl)amino)-7H-pyrrolo[2,3-d]pyrimidin-7-yl)pyridin-2-yl)imino)dimethyl-λ^6-sulfanone] | 7.42 | 9.48 | –
6 | CN1CCN(c2ccc(Nc3ncc4cc(C5CC5)n(-c5cccc(C(C)(C)O)n5)c4n3)cc2)CC1 [Example 55, 2-(6-(2-((4-(4-methylpiperazin-1-yl)phenyl)amino)-6-cyclopropyl-7H-pyrrolo[2,3-d]pyrimidin-7-yl)pyridin-2-yl)propan-2-ol] | – | 9.01 | –
7 | CN1CCN(c2ccc(Nc3ncc4c(F)c(C5CC5)n(-c5cccc(N=S(C)(C)=O)n5)c4n3)cc2)C(CO)C1 (stereo not drawn) [Example 28] | – | 8.89 | 7.40
8 | CCCc1cc2cnc(Nc3ccc(N4CCN(C)CC4)cc3)nc2n1-c1cccc(C(C)(C)O)n1 [Example 2, 2-(6-(2-((4-(4-methylpiperazin-1-yl)phenyl)amino)-6-propyl-7H-pyrrolo[2,3-d]pyrimidin-7-yl)pyridin-2-yl)propan-2-ol] | – | 9.06 | –
9 | CS(C)(=O)=Nc1cccc(-n2c(C3CC3)c(F)c3cnc(Nc4ccc(C5C[C@H]6CC[C@@H](C5)N6)cc4)nc32)n1 (stereo partly drawn) [Example 63] | – | 9.07 | –
10 | CN1CCN(c2ccc(Nc3ncc4c(F)c(C5CC5)n(-c5cccc(N=S(C)(C)=O)n5)c4n3)cn2)CC1 [Example 37, ((6-(6-cyclopropyl-5-fluoro-2-((6-(4-methylpiperazin-1-yl)pyridin-3-yl)amino)-7H-pyrrolo[2,3-d]pyrimidin-7-yl)pyridin-2-yl)imino)dimethyl-λ^6-sulfanone] | – | 8.97 | –
11 | CCCc1cc2cnc(Nc3ccc(N4CCN(CCN(C)C)CC4)cc3)nc2n1-c1cccc(C(C)(C)O)n1 [Example 109, 2-(6-(6-propyl-2-((4-(4 (2-(dimethylamino)ethyl)piperazin-1-yl)phenyl)amino)-7H-pyrrolo[2,3-d]pyrimidin-7-yl)pyridin-2-yl)propan-2-ol] | – | 8.95 | –
12 | CS(C)(=O)=Nc1cccc(-n2c(C3CC3)c(F)c3cnc(Nc4ccc(N5C[C@H]6CC[C@@H](C5)N6)cc4)nc32)n1 [Example 80, ((6-(2-((4-((1R,5S)-3,8-diazabicyclo[3.2.1]octan-3-yl)phenyl)amino)-6-cyclopropyl-5-fluoro-7H-pyrrolo[2,3-d]pyrimidin-7-yl)pyridin-2-yl)imino)dimethyl-λ^6-sulfanone] | – | 8.93 | –
13 | CN1CCN(C2CCN(c3ccc(Nc4ncc5cc(C6CC6)n(-c6cccc(N=S(C)(C)=O)n6)c5n4)cc3Cl)CC2)CC1 [Example 54] | – | 8.98 | –
14 | CN(C)CCN(C)c1ccc(Nc2ncc3c(F)c(C4CC4)n(-c4cccc(N=S(C)(C)=O)n4)c3n2)cc1 [Example 14, ((6-(5-fluoro-2-((4-((2-(dimethylamino)ethyl)(methyl)amino)phenyl)amino)-6-cyclopropyl-7H-pyrrolo[2,3-d]pyrimidin-7-yl)pyridin-2-yl)imino)dimethyl-λ^6-sulfanone] | – | 9.00 | –

Continued by rising pIC50 [2], values first:

Row | pIC50 ([1]; Homo sapiens, 72 h) | pIC50 [2] | pIC50 [1] | Compound
15 | – | 9.08 | – | CC(C)c1cc2cnc(Nc3ccc(N4CCN(C)CC4)cc3)nc2n1-c1cccc(C(C)(C)O)n1 [Example 141, 2-(6-(6-isopropyl-2-((4-(4-methylpiperazin-1-yl)phenyl)amino)-7H-pyrrolo[2,3-d]pyrimidin-7-yl)pyridin-2-yl)propan-2-ol]
16 | 7.48 | 9.12 | – | CCCc1cc2cnc(Nc3ccc(N4CCN(C)CC4)cc3)nc2n1-c1cccc(N=S(C)(C)=O)n1 [Example 4, ((6-(2-((4 (4-methylpiperazin-1-yl)phenyl)amino)-6-propyl-7H-pyrrolo[2,3-d]pyrimidin-7-yl)pyridin-2-yl)imino)dimethyl-λ^6-sulfanone]
17 | – | 9.21 | – | CS(C)(=O)=Nc1cccc(-n2c(C3CC3)c(F)c3cnc(Nc4ccc(N5CCC(N6CCOCC6)CC5)cc4)nc32)n1 [Example 35, ((6-(5-fluoro-2-((4-(4-(morpholine 4-yl)piperidin-1-yl)phenyl)amino)-6-cyclopropyl-7H-pyrrolo[2,3-d]pyrimidin-7-yl)pyridin-2-yl)imino)dimethyl-λ^6-sulfanone]
18 | – | 9.22 | – | Cc1cc2cnc(Nc3ccc(N4CCN(C)CC4)cc3)nc2n1-c1cccc(C(C)(C)O)n1 [Example 145, 2-(6-(6-methyl-2-((4 (4-methylpiperazin-1-yl)phenyl)amino)-7H-pyrrolo[2,3-d]pyrimidin-7-yl)pyridin-2-yl)propan-2-ol]
19 | – | 9.23 | – | CCc1cc2cnc(Nc3ccc(N4CCN(C)CC4)cc3)nc2n1-c1cccc(C(C)(C)O)n1 [Example 159, 2-(6-(6-ethyl-2-((4-(4-methylpiperazin-1-yl)phenyl)amino)-7H-pyrrolo[2,3-d]pyrimidin-7-yl)pyridin-2-yl)propan-2-ol]
20 | 7.23 | 9.29 | – | Cc1cc2cnc(Nc3ccc(N4CCN(C)CC4)cc3)nc2n1-c1cccc(N=S(C)(C)=O)n1 [Example 13, ((6-(6-methyl-2 ((4 (4-methylpiperazin-1-yl)phenyl)amino)-7H-pyrrolo[2,3-d]pyrimidin-7-yl)pyridin-2-yl)imino)dimethyl-λ^6-sulfanone]
21 | – | 9.52 | 7.36 | CCCc1cc2cnc(Nc3ccc(N4CCC5(CCN(C)CC5)CC4)cc3)nc2n1-c1cccc(N=S(C)(C)=O)n1 [Example 123, ((6-(6-propyl-2-((4-(9-methyl-3,9-diazaspiro[5.5]undecan-3-yl)phenyl)amino)-7H-pyrrolo[2,3-d]pyrimidin-7-yl)pyridin-2-yl)imino)dimethyl-λ^6-sulfanone]
22 | – | 9.52 | – | COc1cc(Nc2ncc3cc(C4CC4)n(-c4cccc(N=S(C)(C)=O)n4)c3n2)ccc1N1CCN(C)CC1 [Example 38, ((6-(2-(((3-methoxy-4-(4-methylpiperazin-1-yl)phenyl))amino)-6-cyclopropyl-7H-pyrrolo[2,3-d]pyrimidin-7-yl)pyridin-2-yl)imino)dimethyl-λ^6-sulfanone]

— patent publication US20220194960A1, “WEE1 INHIBITOR AND PREPARATION AND USE THEREOF” (SHOUYAO HOLDINGS (BEIJING) CO., LTD., priority 2019, published 2022)
